From PMC10766964, “Copper-catalyzed synthesis of pyrazolo[1,5-a]pyrimidine based triazole-linked glycohybrids: mechanistic insights and bio-applications” (Scientific Reports, 2024)
Read-outs that look alike come from different tables or passages of the source.

Test system: MDA-MB-231 (human breast cancer) cell line
Test: MTT cell viability assay in MDA-MB-231 cells
Type: cell-based
Conditions: 72 h; for viability at 20 µM: positive control at 20 µM
Experimental: Thus, we screened the synthesized library of pyrazolo[1,5-a]pyrimidin-7-ols 4a–4i. Anticancer activity (in terms of growth inhibition/decreased cell viability with respect to control) of all synthesized compounds (n = 9) was investigated by MTT assay in MDA-MB-231 (human breast cancer) cell line at different concentrations for 72 h. […] Thus, it was aimed to investigate the anticancer activity of a synthesized library of triazole-linked glycohybrids of pyrazolo[1,5-a]pyrimidines. […] The MTT assay was used to investigate the anticancer activity of twenty-seven synthesized compounds on the growth inhibition and decrement in cell viability of MDA-MB-231 (human breast cancer). Different concentrations were tested for 72 h, and the results were compared to a control. MDA-MB-231, a human breast cancer cell line, was cultured under standard conditions. Specifically, they were grown in Dulbecco’s Modified Eagle’s Medium (DMEM) supplemented with 10% heat-inactivated Fetal Bovine Serum (FBS) and 1% penicillin–streptomycin. The cells were maintained as a monolayer in a 100 mm culture plate and were used for experiments before reaching their 8th passage. Subculturing was performed every third-day using trypsin EDTA treatment. All incubation and maintenance procedures were carried out in a humidified CO2 incubator at 37 °C. To evaluate cell viability, the MTT assay was conducted following standard procedures. After 72 h of cell incubation with or without each compound, cell viability was assessed using MTT (3-(4,5-dimethylthiazol-2-yl)-2,5-diphenyltetrazolium bromide), which is a colorimetric method for determining the number of viable cells in various assays including proliferation, cytotoxicity, or chemosensitivity. The MTT reagent was added to the cells after removal of the medium and incubated for 3 h at 37 °C in the CO2 incubator. The formazan product, which is […] in the tissue culture medium, was dissolved in DMSO, and the absorbance of the formazan product was directly measured at 595 nm using a multimode plate reader without additional processing. The absorbance values are directly proportional to the number of viable cells in culture. The percentage of viable cells in each group was determined relative to the untreated control cells.

[1] = Table 2, MDA-MB-231, MTT, read-out: Cell viability (%) ± SD
[2] = Table 1, MDA-MB-231, MTT, read-out: Cell Viability (%) ± SD

Compound | viability at 10 µM [1] | viability at 25 µM [1] | viability at 50 µM [1] | viability at 10 µM [2] | viability at 25 µM [2] | viability at 50 µM [2] | viability at 20 µM [2] | viability at 20 µM [1]
CC(=O)OC[C@H]1O[C@@H](n2cc(COc3cc(-c4ccc5c(c4)OCO5)nc4ccnn34)nn2)[C@H](OC(C)=O)[C@@H](OC(C)=O)[C@@H]1OC(C)=O [Compound 9i, (2R,3R,4S,5R,6R)-2-(acetoxymethyl)-6-(4-(((5-(benzo[d][1,3]dioxol-5-yl)pyrazolo[1,5-a]pyrimidin-7-yl)oxy)methyl)-1H-1,2,3-triazol-1-yl)tetrahydro-2H-pyran-3,4,5-triyl triacetate] | 85.1 ± 4.09% | 82.5 ± 2.58% | 80.4 ± 7.36% | – | – | – | – | –
Oc1cc(-c2ccc(F)cc2)nc2ccnn12 [Compound 4e] | – | – | – | 86.6 ± 9.76% | 78.1 ± 3.51% | 69.5 ± 5.69% | – | –
CC(=O)OC[C@H]1O[C@@H](n2cc(COc3cc(-c4ccc5c(c4)OCO5)nc4ccnn34)nn2)[C@H](OC(C)=O)[C@@H](OC(C)=O)[C@H]1OC(C)=O [Compound 10i, (2R,3S,4S,5R,6R)-2-(acetoxymethyl)-6-(4-(((5-(benzo[d][1,3]dioxol-5-yl)pyrazolo[1,5-a]pyrimidin-7-yl)oxy)methyl)-1H-1,2,3-triazol-1-yl)tetrahydro-2H-pyran-3,4,5-triyl triacetate] | 100 ± 9.67% | 99.25 ± 0.34% | 98.5 ± 1.88% | – | – | – | – | –
CC(=O)OC[C@H]1O[C@H](n2cc(COc3cc(-c4ccc(C)cc4)nc4ccnn34)nn2)[C@@H](OC(C)=O)[C@@H](OC(C)=O)[C@@H]1OC(C)=O [Compound 11a, (2R,3R,4S,5S,6S)-2-(acetoxymethyl)-6-(4-(((5-(p-tolyl)pyrazolo[1,5-a]pyrimidin-7-yl)oxy)methyl)-1H-1,2,3-triazol-1-yl)tetrahydro-2H-pyran-3,4,5-triyl triacetate] | 98 ± 7.7% | 91.8 ± 7.09% | 96.7 ± 9.12% | – | – | – | – | –
CC(=O)OC[C@H]1O[C@@H](n2cc(COc3cc(-c4ccc5ccccc5c4)nc4ccnn34)nn2)[C@H](OC(C)=O)[C@@H](OC(C)=O)[C@H]1OC(C)=O [Compound 10h, (2R,3S,4S,5R,6R)-2-(acetoxymethyl)-6-(4-(((5-(naphthalen-2-yl)pyrazolo[1,5-a]pyrimidin-7-yl)oxy)methyl)-1H-1,2,3-triazol-1-yl)tetrahydro-2H-pyran-3,4,5-triyl triacetate] | 75 ± 8.31% | 89.6 ± 9.91% | 57.7 ± 10.8% | – | – | – | – | –
CC(=O)OC[C@H]1O[C@H](n2cc(COc3cc(-c4ccc5c(c4)OCO5)nc4ccnn34)nn2)[C@@H](OC(C)=O)[C@@H](OC(C)=O)[C@@H]1OC(C)=O [Compound 11i, (2R,3R,4S,5S,6S)-2-(acetoxymethyl)-6-(4-(((5-(benzo[d][1,3]dioxol-5-yl)pyrazolo[1,5-a]pyrimidin-7-yl)oxy)methyl)-1H-1,2,3-triazol-1-yl)tetrahydro-2H-pyran-3,4,5-triyl triacetate] | 97.5 ± 4.91% | 95.3 ± 3.6% | 93.9 ± 9.08% | – | – | – | – | –
CC(=O)OC[C@H]1O[C@@H](n2cc(COc3cc(-c4ccc(C(C)C)cc4)nc4ccnn34)nn2)[C@H](OC(C)=O)[C@@H](OC(C)=O)[C@H]1OC(C)=O [Compound 10g, (2R,3S,4S,5R,6R)-2-(acetoxymethyl)-6-(4-(((5-(4-isopropylphenyl)pyrazolo[1,5-a]pyrimidin-7-yl)oxy)methyl)-1H-1,2,3-triazol-1-yl)tetrahydro-2H-pyran-3,4,5-triyl triacetate] | 85.2 ± 3.5% | 79.5 ± 8.96% | 78.7 ± 2.56% | – | – | – | – | –
Oc1cc(-c2ccc(Cl)cc2)nc2ccnn12 [Compound 4d] | – | – | – | 98.6 ± 2.25% | 95.2 ± 1.96% | 87.2 ± 9.22% | – | –
CC(=O)OC[C@H]1O[C@H](n2cc(COc3cc(-c4ccc(C(F)(F)F)cc4)nc4ccnn34)nn2)[C@@H](OC(C)=O)[C@@H](OC(C)=O)[C@@H]1OC(C)=O [Compound 11f, (2R,3R,4S,5S,6S)-2-(acetoxymethyl)-6-(4-(((5-(4-(trifluoromethyl)phenyl)pyrazolo[1,5-a]pyrimidin-7-yl)oxy)methyl)-1H-1,2,3-triazol-1-yl)tetrahydro-2H-pyran-3,4,5-triyl triacetate] | 79.6 ± 4.7% | 74.5 ± 4.44% | 86.5 ± 7.27% | – | – | – | – | –
Oc1cc(-c2ccc3ccccc3c2)nc2ccnn12 [Compound 4h] | – | – | – | 89.1 ± 4.09% | 86.5 ± 2.58% | 84.4 ± 7.36% | – | –
CC(=O)OC[C@H]1O[C@@H](n2cc(COc3cc(-c4ccc(Br)cc4)nc4ccnn34)nn2)[C@H](OC(C)=O)[C@@H](OC(C)=O)[C@@H]1OC(C)=O [Compound 9c, (2R,3R,4S,5R,6R)-2-(acetoxymethyl)-6-(4-(((5-(4-bromophenyl)pyrazolo[1,5-a]pyrimidin-7-yl)oxy)methyl)-1H-1,2,3-triazol-1-yl)tetrahydro-2H-pyran-3,4,5-triyl triacetate] | 100 ± 8.01% | 100 ± 8.93% | 99.5 ± 2.89% | – | – | – | – | –
CC(=O)OC[C@H]1O[C@@H](n2cc(COc3cc(-c4ccc(F)cc4)nc4ccnn34)nn2)[C@H](OC(C)=O)[C@@H](OC(C)=O)[C@H]1OC(C)=O [Compound 10e, (2R,3S,4S,5R,6R)-2-(acetoxymethyl)-6-(4-(((5-(4-fluorophenyl)pyrazolo[1,5-a]pyrimidin-7-yl)oxy)methyl)-1H-1,2,3-triazol-1-yl)tetrahydro-2H-pyran-3,4,5-triyl triacetate] | 78.4 ± 9.97% | 68.6 ± 10.1% | 71.3 ± 6.17% | – | – | – | – | –
CC(=O)OC[C@H]1O[C@H](n2cc(COc3cc(-c4ccc(Cl)cc4)nc4ccnn34)nn2)[C@@H](OC(C)=O)[C@@H](OC(C)=O)[C@@H]1OC(C)=O [Compound 11d, (2R,3R,4S,5S,6S)-2-(acetoxymethyl)-6-(4-(((5-(4-chlorophenyl)pyrazolo[1,5-a]pyrimidin-7-yl)oxy)methyl)-1H-1,2,3-triazol-1-yl)tetrahydro-2H-pyran-3,4,5-triyl triacetate] | 95.8 ± 5.85% | 92.1 ± 6% | 89 ± 1.1% | – | – | – | – | –
CC(=O)OC[C@H]1O[C@@H](n2cc(COc3cc(-c4ccc(C(F)(F)F)cc4)nc4ccnn34)nn2)[C@H](OC(C)=O)[C@@H](OC(C)=O)[C@@H]1OC(C)=O [Compound 9f, (2R,3R,4S,5R,6R)-2-(acetoxymethyl)-6-(4-(((5-(4-(trifluoromethyl)phenyl)pyrazolo[1,5-a]pyrimidin-7-yl)oxy)methyl)-1H-1,2,3-triazol-1-yl)tetrahydro-2H-pyran-3,4,5-triyl triacetate] | 92.2 ± 8.51% | 88.8 ± 8.75% | 73.8 ± 7.02% | – | – | – | – | –
CC(=O)OC[C@H]1O[C@@H](n2cc(COc3cc(-c4ccc(Br)cc4)nc4ccnn34)nn2)[C@H](OC(C)=O)[C@@H](OC(C)=O)[C@H]1OC(C)=O [Compound 10c, (2R,3S,4S,5R,6R)-2-(acetoxymethyl)-6-(4-(((5-(4-bromophenyl)pyrazolo[1,5-a]pyrimidin-7-yl)oxy)methyl)-1H-1,2,3-triazol-1-yl)tetrahydro-2H-pyran-3,4,5-triyl triacetate] | 79.5 ± 2.43% | 77.8 ± 2.43% | 74 ± 2.62% | – | – | – | – | –
CC(=O)OC[C@H]1O[C@@H](n2cc(COc3cc(-c4ccc(C(C)C)cc4)nc4ccnn34)nn2)[C@H](OC(C)=O)[C@@H](OC(C)=O)[C@@H]1OC(C)=O [Compound 9g, (2R,3R,4S,5R,6R)-2-(acetoxymethyl)-6-(4-(((5-(4-isopropylphenyl)pyrazolo[1,5-a]pyrimidin-7-yl)oxy)methyl)-1H-1,2,3-triazol-1-yl)tetrahydro-2H-pyran-3,4,5-triyl triacetate] | 110 ± 13.5% | 103 ± 3.51% | 68.5 ± 17.7% | – | – | – | – | –
Cc1ccc(-c2cc(O)n3nccc3n2)cc1 [Compound 4a] | – | – | – | 91.4 ± 4.38% | 85.5 ± 3.74% | 84.4 ± 2.16% | – | –
COc1ccc(-c2cc(OCc3cn([C@@H]4O[C@H](COC(C)=O)[C@@H](OC(C)=O)[C@H](OC(C)=O)[C@H]4OC(C)=O)nn3)n3nccc3n2)cc1 [Compound 9b, (2R,3R,4S,5R,6R)-2-(acetoxymethyl)-6-(4-(((5-(4-methoxyphenyl)pyrazolo[1,5-a]pyrimidin-7-yl)oxy)methyl)-1H-1,2,3-triazol-1-yl)tetrahydro-2H-pyran-3,4,5-triyl triacetate] | 95.4 ± 5.38% | 85.5 ± 6.74% | 83.4 ± 4.16% | – | – | – | – | –
CC1=CC(=O)c2ccccc2C1=O [Menadione, menadione, reference compound] | – | – | – | – | – | – | 21.8 ± 4.7% | 20.8 ± 6.7%
